Data taken from patent publication US12648574B2 (priority 2019, dated 2026).
Read-outs that look alike come from different tables or passages of the source.

Columns and labels:
[1] = system: X. fastidiosa subsp. fastidiosa (IVIA strain 5387.2); type: cell-based, Xylella fastidiosa subsp. fastidiosa; details: ampicillin 100 mg/l
[2] = system: Xylella fastidiosa subsp. fastidiosa IVIA 5387.2; type: cell-based; details: for mean survival: streptomycin 100 mg/L
[3] = system: Xylella fastidiosa subsp. fastidiosa strain 5387.2 in almond plants of the Avijor variety; type: in vivo; details: ampicillin 100 mg/L
[4] = system: Xylella fastidiosa subsp. multiplex IVIA 5901.2; type: cell-based; details: for mean survival: ampicillin 100 mg/L
[5] = system: Ralstonia solanacearum CECT 125; type: cell-based; details: streptomycin 100 mg/L
[6] = system: Pseudomonas syringae pv. syringae EPS 94; type: cell-based
[7] = system: Xanthomonas arboricola pv. pruni CFBP 5563; type: cell-based
[8] = system: Xanthomonas arboricola pv. pruni CFBP 5563; type: cell-based; remark: listed apart in the source
[9] = system: Xanthomonas fragariae 349-9^a; type: cell-based
[10] = system: Xanthomonas axonopodis pv. vesicatoria IVIA 2133.2; type: cell-based
[11] = system: 11 phytopathogenic strains; type: cell-based
[12] = system: Xylella fastidiosa subsp. pauca DD1 CODiRo; type: cell-based; details: streptomycin 100 mg/L
[13] = system: Erwinia amylovora EPS 101; type: cell-based
[14] = system: Xylella fastidiosa subsp. multiplex IVIA 5901.2; type: cell-based; details: streptomycin 100 mg/L
[15] = system: Xanthomonas axonopodis pv. vesicatoria IVIA 2133.2; type: cell-based; details: 2 h
[16] = system: EPS101 strain of E. amylovora in pear plants of the Conference variety; parameters: species or system Erwinia amylovora; details: in vivo
[17] = system: X. fastidiosa subsp. pauca strain CoDiRO (DD1); type: cell-based, Xylella fastidiosa subsp. pauca; details: streptomycin 100 mg/L
[18] = system: Xylella fastidiosa subsp. fastidiosa IVIA 5387.2; type: cell-based; details: streptomycin 100 mg/L
[19] = system: Erwinia amylovora EPS 101; type: cell-based; remark: listed apart in the source
[20] = 31 days after application, qPCR of sap

CC1(C)S[C@@H]2[C@H](NC(=O)[C@H](N)c3ccccc3)C(=O)N2[C@H]1C(=O)O [ampicillin]
median survival ([1]; 30 minutes): 100%
survival ([1]; 2 hours): 20.6%
type of effect ([2]; ampicillin 100 mg/L): bacteriostatic effect
survival ([2]; ampicillin 100 mg/L, 30 and 120 minutes, direct suspension or dilution −1): no survival
plants with decrease of viable bacteria at the inoculation point ([3]; 18 h after application, 4 plants): 25 % of the plants
plants with upward and downward movement of Xylella fastidiosa ([3]; 31 days after application): 75 % of the plants
plants with Xylella fastidiosa not detected in A1 [3, 20]: 25 % of plants
plants with Xylella fastidiosa not detected in A2 [3, 20]: 25 % of plants
plants with Xylella fastidiosa not detected in B [3, 20]: 25 % of plants
severity of infections with respect to untreated control ([3]; curative trunk microinjection, product 20 and 40 μl/ml, 31 days after application): significantly reduced
lower progression of Xylella fastidiosa by the vascular system (qPCR) ([3]; product 20 μl/ml, 14 days after application): not observed
mean survival ([4]; 30 minutes): 2%
mean survival ([4]; 120 minutes): 4.4%

[H]/N=C(/N)N[C@H]1[C@H](O)[C@@H](O)[C@H](O[C@@H]2O[C@@H](C)[C@](O)(C=O)[C@H]2O[C@@H]2O[C@@H](CO)[C@H](O)[C@@H](O)[C@@H]2NC)[C@@H](N/C(N)=N\[H])[C@@H]1O [streptomycin]
bacterial growth [5]: −
bacterial growth [6]: −
mean survival [7]: 0.01%
survival ([7]; 2 hours): no survival
bacterial growth [8]: −
bacterial growth [9]: −
bacterial growth [10]: −
growth of all pathogens tested [11]: inhibited the growth
bacterial growth [12]: −
mean survival ([2]; 30 minutes): 4.4%
mean survival ([2]; 120 minutes): 20%
bacterial growth [13]: −
bacterial growth [14]: −
survival [15]: 3.06
survival compared to the untreated control ([4]; streptomycin 100 mg/L): no significant differences
severity of infections with respect to untreated control [16]: significantly reduced
survival ([17]; 30 minutes): 89.8%
survival ([17]; 120 minutes): 61.7%
bacterial growth [18]: −
survival [19]: significant reduction
